Structures can show the parent of a compound that is named as a salt.

T1 sequence (Q9Y2I7 whole entry S696N/L932S/Q995L/T998S/S1033A/Q1183K): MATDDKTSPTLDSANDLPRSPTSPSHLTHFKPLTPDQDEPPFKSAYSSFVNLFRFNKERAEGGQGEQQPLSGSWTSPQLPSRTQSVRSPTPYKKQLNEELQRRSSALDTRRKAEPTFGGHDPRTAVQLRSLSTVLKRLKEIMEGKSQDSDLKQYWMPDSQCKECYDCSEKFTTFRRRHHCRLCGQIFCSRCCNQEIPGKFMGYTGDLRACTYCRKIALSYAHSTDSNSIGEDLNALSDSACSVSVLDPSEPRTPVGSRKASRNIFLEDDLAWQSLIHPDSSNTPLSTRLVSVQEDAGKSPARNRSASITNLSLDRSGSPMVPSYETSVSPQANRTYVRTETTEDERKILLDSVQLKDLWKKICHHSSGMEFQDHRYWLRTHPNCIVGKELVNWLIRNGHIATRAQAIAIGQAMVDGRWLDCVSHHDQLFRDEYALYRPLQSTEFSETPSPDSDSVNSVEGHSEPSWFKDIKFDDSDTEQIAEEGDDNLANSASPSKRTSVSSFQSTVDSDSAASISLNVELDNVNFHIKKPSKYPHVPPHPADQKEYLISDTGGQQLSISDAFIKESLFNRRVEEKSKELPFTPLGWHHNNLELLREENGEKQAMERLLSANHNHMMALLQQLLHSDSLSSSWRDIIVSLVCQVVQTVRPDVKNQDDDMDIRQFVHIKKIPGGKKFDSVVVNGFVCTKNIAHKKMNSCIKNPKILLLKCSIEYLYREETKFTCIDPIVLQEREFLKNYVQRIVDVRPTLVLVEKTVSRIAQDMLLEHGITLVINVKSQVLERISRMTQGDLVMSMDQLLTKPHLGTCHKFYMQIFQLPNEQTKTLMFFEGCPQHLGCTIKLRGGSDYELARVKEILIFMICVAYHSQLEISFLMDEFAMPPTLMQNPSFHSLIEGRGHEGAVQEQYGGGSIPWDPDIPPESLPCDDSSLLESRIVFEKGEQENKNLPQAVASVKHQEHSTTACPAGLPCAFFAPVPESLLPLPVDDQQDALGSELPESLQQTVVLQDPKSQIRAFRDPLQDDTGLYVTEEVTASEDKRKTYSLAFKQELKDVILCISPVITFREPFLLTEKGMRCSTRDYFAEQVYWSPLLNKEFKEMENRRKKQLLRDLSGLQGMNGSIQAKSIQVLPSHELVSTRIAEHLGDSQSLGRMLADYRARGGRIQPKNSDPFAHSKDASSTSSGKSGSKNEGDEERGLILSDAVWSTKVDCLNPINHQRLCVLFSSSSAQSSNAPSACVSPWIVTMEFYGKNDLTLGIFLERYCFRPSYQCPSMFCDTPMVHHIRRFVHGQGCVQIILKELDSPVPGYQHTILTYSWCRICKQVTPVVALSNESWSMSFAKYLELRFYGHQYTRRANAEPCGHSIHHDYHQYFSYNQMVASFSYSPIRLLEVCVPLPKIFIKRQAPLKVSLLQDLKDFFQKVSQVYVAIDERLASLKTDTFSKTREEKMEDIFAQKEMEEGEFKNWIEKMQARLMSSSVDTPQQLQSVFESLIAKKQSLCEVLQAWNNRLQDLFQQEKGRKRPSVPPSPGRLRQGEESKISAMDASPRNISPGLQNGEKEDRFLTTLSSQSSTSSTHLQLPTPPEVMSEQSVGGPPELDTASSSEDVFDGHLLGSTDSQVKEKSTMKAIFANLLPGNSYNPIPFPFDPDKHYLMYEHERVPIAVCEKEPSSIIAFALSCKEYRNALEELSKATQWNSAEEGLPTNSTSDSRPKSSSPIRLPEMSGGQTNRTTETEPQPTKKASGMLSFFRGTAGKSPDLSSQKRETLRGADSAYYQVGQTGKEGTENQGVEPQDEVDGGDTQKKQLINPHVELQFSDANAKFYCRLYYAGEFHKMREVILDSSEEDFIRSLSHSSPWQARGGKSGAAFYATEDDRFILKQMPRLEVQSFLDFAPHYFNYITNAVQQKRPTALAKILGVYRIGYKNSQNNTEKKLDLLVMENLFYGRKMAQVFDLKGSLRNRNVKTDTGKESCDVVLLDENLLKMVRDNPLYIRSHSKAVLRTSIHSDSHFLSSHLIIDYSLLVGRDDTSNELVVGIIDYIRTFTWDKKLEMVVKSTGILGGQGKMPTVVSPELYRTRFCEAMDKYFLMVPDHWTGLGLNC

This experiment concerns the target T1, Full length human recombinant PIKFYVE (Homo sapiens, UniProt Q9Y2I7, L932S/Q1183K/Q995L/S1033A/S696N/T998S).
T1 construct: Full length human recombinant PIKFYVE; purchased Carna Biosciences (Kobe, Japan); host or cells: baculovirus expression system (insect cells)
Briefly: Inhibition of PIKfyve (microfluidic electrophoresis kinase assay). The class given is biochemical. Particulars: 2 nM enzyme, 1 μM PI3P, 3 h at room temperature, 12 concentrations; read-out: PIKfyve IC50. As for the experimental part:
Biological Example 1: Inhibition of PIKfyve
Full length human recombinant PIKFYVE expressed in baculovirus expression system as N-terminal GST-fusion protein (265 kDa) was obtained from Carna Biosciences (Kobe, Japan). The kinase substrate was prepared by mixing and sonicating fluorescently-labeled phosphatidylinositol 3-phosphate (PI3P) with phospho-L-serine (PS) at a 1:10 ratio in 50 mM HEPES buffer pH7.5.
The kinase reactions were assembled in 384-well plates (Greiner) in a total volume of […] as follows. Kinase protein was pre-diluted in an assay buffer comprising 25 mM HEPES, pH 7.5, 1 mM DTT, 2.5 mM MgCl2, and 2.5 mM MnCl2, and 0.005% Triton X-100, and dispensed into a 384-well plate (10 μL per well). Test compounds were serially pre-diluted in DMSO and added to the protein samples by acoustic dispensing (Labcyte Echo). The concentration of DMSO was equalized to 1% in all samples. All test compounds were tested at 12 concentrations. Apilimod was used as a reference compound and was tested in identical manner in each assay plate. Control samples (0%-inhibition, in the absence of inhibitor, DMSO only) and 100%-inhibition (in the absence of enzyme) were assembled in replicates of four and were used to calculate %-inhibition in the presence of compounds. The reactions were initiated by addition of 10 μL of 2× PI3P/PS substrate supplemented with ATP. The final concentration of enzyme was 2 nM, the final concentration of ATP was […], and the final concentration of PI3P/PS substrate was 1 μM (PI3P). The kinase reactions were allowed to proceed for 3 h at room temperature. Following incubation, the reactions were quenched by addition of […] of termination buffer (100 mM HEPES, pH 7.5, 0.01% Triton X-100, 20 mM EDTA). Terminated plates were analyzed on a microfluidic electrophoresis instrument (Caliper LabChip® 3000, Caliper Life Sciences/Perkin Elmer). The change in the relative fluorescence intensity of the PI(3)P substrate and PI(3,5)P product peaks was measured. The activity in each test sample was determined as the product to sum ratio (PSR): P/(S+P), where P is the peak height of the product, and S is the peak height of the substrate. Percent inhibition (Pinh) was determined using the following equation:
Pinh=(PSR0%inh−PSRcompound)/(PSR0%inh−P100%inh)*100
in which PSRcompound is the product/sum ratio in the presence of compound, PSR0%inh is the product/sum ratio in the absence of compound, and the PSR100%inh is the product/sum ratio in the absence of the enzyme. To determine the ICso of test compounds (50%-inhibition) the %-inh cdata (Pinh versus compound concentration) were fitted by a four-parameter sigmoid dose-response model using XLfit software (IDBS).
As to `Fc1cccc(-c2cc(Nc3nc(N4CCOCC4)c4oc5ncccc5c4n3)[nH]n2)c1` [Example 16, N-(3-(3-fluorophenyl)-1H-pyrazol-5-yl)-4-morpholinopyrido[3′,2′:4,5]furo[3,2-d]pyrimidin-2-amine hydrochloride], the IC50 is 129 nM.

As for `c1ccc(-c2cc(Nc3nc(N4CCOCC4)c4oc5ncccc5c4n3)[nH]n2)nc1` [Example 6, 4-Morpholino-N-(3-(pyridin-2-yl)-1H-pyrazol-5-yl)pyrido[3′,2′:4,5]furo[3,2-d]pyrimidin-2-amine hydrochloride], the IC50 amounted to 251 nM.

With `CN(C)CCOc1ccc2c(n1)oc1c(N3CCOCC3)nc(Nc3cc(-c4ccccc4)n[nH]3)nc12` [Example 4, 7-(2-(Dimethylamino)ethoxy)-4-morpholino-N-(3-phenyl-1H-pyrazol-5-yl)pyrido[3′,2′:4,5]furo[3,2-d]pyrimidin-2-amine hydrochloride], the IC50 was determined as 68 nM.

Take `Cc1cccc(-c2cc(Nc3nc(N4CCOCC4)c4oc5ncccc5c4n3)[nH]n2)n1` [Example 33, N-(3-(6-methylpyridin-2-yl)-1H-pyrazol-5-yl)-4-morpholinopyrido[3′,2′:4,5]furo[3,2-d]pyrimidin-2-amine hydrochloride]: the half-inhibitory concentration (IC50) worked out at 261 nM.

With `c1ccc(-c2ccc(Nc3nc(N4CCOCC4)c4oc5ncccc5c4n3)cc2)cc1` [Example 44, N-([1,1′-biphenyl]-4-yl)-4-morpholinopyrido[3′,2′:4,5]furo[3,2-d]pyrimidin-2-amine], the concentration for half-maximal inhibition (IC50) is 356 nM.

Regarding `c1ccc(CNc2nc(N3CCOCC3)c3oc4ncccc4c3n2)cc1` [Example 2, N-Benzyl-4-morpholinopyrido[3′,2′:4,5]furo[3,2-d]pyrimidin-2-amine], the IC50 is over 10000 nM.

Consider `c1cnc2oc3c(N4CCOCC4)nc(Nc4cc(CC5CC5)n[nH]4)nc3c2c1` [Example 54, N-(3-(cyclopropylmethyl)-1H-pyrazol-5-yl)-4-morpholinopyrido[3′,2′:4,5]furo[3,2-d]pyrimidin-2-amine hydrochloride], for which the 50% inhibitory concentration (IC50) came to 2600 nM.

Consider `CN(C)CCc1cnc2oc3c(N4CCOCC4)nc(Nc4cc(-c5ccccc5)n[nH]4)nc3c2c1` [Example 13, 8-(2-(Dimethylamino)ethyl)-4-morpholino-N-(3-phenyl-1H-pyrazol-5-yl)pyrido[3′,2′:4,5]furo[3,2-d]pyrimidin-2-amine], for which the IC50 came to 143 nM.

`CC(C)c1cc(Nc2nc(N3CCOCC3)c3oc4ncccc4c3n2)[nH]n1` [Example 63, N-(3-isopropyl-1H-pyrazol-5-yl)-4-morpholinopyrido[3′,2′:4,5]furo[3,2-d]pyrimidin-2-amine hydrochloride]: the IC50 was 1850 nM.

In the case of `c1cncc(-c2cc(Nc3nc(N4CCOCC4)c4oc5ncccc5c4n3)[nH]n2)c1` [Example 31, 4-morpholino-N-(3-(pyridin-3-yl)-1H-pyrazol-5-yl)pyrido[3′,2′:4,5]furo[3,2-d]pyrimidin-2-amine hydrochloride], the IC50 turned out to be 1090 nM.

Take `O=C(Nc1nc(N2CCOCC2)c2oc3ncccc3c2n1)c1ccccc1` [Example 3]: the IC50 is over 10000 nM.

Consider `c1cnc2oc3c(N4CCOCC4)nc(Nc4ccncn4)nc3c2c1` [Example 41, 4-morpholino-N-(pyrimidin-4-yl)pyrido[3′,2′:4,5]furo[3,2-d]pyrimidin-2-amine], for which the IC50 was over 10000 nM.

For the compound `CN1CCN(CCCOc2ccc3c(n2)oc2c(N4CCOCC4)nc(Nc4cc(-c5ccccc5)n[nH]4)nc23)CC1` [Example 29, 7-(3-(4-methylpiperazin-1-yl)propoxy)-4-morpholino-N-(3-phenyl-1H-pyrazol-5-yl)pyrido[3′,2′:4,5]furo[3,2-d]pyrimidin-2-amine hydrochloride], the IC50 was determined as 3 nM.

For `c1ccc(-c2ccccc2Nc2nc(N3CCOCC3)c3oc4ncccc4c3n2)cc1` [Example 46, N-([1,1′-biphenyl]-2-yl)-4-morpholinopyrido[3′,2′:4,5]furo[3,2-d]pyrimidin-2-amine], the half-maximal inhibitory concentration (IC50) worked out at 3870 nM.

As a reminder, the IC50 is the midpoint of a concentration-inhibition curve.

The values above are taken from patent US20230038929A1, “Fused Tricyclic Heterocyclic Compounds and Uses Thereof” (Verge Analytics, Inc., priority 2019, published 2023).
